What was measured:
human β1‐adrenoceptor [1] = target: T1, human β1‐adrenoceptor (Homo sapiens, UniProt P08588); test: [3H]-DHA association kinetics; format: binding; conditions: human β1AR, 37°C
human β1‐adrenoceptors = test: Simulated association and dissociation of β-blockers from kinetic parameters; conditions: 30 × K d (β1), free ligand removed at 5 min
human β2‐adrenoceptors = test: as above; conditions: 30 × K d (β1), free ligand removed at 5 min
human β1‐adrenoceptor [2] = target: T1, human β1‐adrenoceptor; test: [3H]-DHA competition kinetic binding assay; conditions: for koff / kon: human β1AR, CHO membranes, HBSS + 100 μM GTP, 37°C, ~3 nM [3H]-DHA
human β1‐adrenoceptor [3] = target: T1, human β1‐adrenoceptor; test: [3H]-DHA equilibrium competition binding
[4] = global fit, 3 radioligand concentrations

T1 sequence (P08588 whole entry): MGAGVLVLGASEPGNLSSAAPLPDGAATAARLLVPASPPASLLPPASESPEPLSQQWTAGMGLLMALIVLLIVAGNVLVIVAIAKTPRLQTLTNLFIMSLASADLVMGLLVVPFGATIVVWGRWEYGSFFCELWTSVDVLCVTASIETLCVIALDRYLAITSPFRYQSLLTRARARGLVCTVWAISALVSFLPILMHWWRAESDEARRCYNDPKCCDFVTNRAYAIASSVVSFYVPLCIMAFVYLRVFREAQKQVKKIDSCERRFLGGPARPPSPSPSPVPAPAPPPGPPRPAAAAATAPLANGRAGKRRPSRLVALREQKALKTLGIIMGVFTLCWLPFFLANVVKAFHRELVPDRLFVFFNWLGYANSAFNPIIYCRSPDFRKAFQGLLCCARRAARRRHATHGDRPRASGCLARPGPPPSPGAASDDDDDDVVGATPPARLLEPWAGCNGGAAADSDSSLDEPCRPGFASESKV

Molecule	Kd (human β1‐adrenoceptor [2])	koff (human β1‐adrenoceptor [2])	kon (human β1‐adrenoceptor [2])	Ki (human β1‐adrenoceptor [3])	other results
1‐[4,6‐propyl‐^3H]dihydroalprenolol [[^3H]‐DHA]	–	–	–	–	k off of radioligand (human β1‐adrenoceptor [1]; [4]): 0.00767 ± 0.0005 s⁻¹; k on of radioligand (human β1‐adrenoceptor [1]; [4]): 5.28 ± 0.48 × 10^8 M^−1 min^−1; Kd (human β1‐adrenoceptor [1]; read-out: K d of radioligand, from the kinetic fit): 0.94 nM
CC(C)NC[C@H](O)COc1ccc(CC(N)=O)cc1 [Atenolol, (S)‐(−) atenolol]	–	–	–	–	time until receptor binding is fully reversed (simulation) (human β1‐adrenoceptors; β1 and β2 adrenoceptors simulated): ≤ 5 min
CC(C)NCC(O)COc1ccc(COCCOC(C)C)cc1 (centres unmarked) [Bisoprolol, bisoprolol hemifumarate]	–	–	–	–	time for full dissociation from the β1‐adrenoceptor (simulation) (human β1‐adrenoceptors): approximately 40 min; time for full dissociation from the β2‐adrenoceptor (simulation) (human β2‐adrenoceptors): a matter of seconds
CC(C)(Cc1c[nH]c2ccccc12)NCC(O)COc1ccccc1C#N (centres unmarked) [Bucindolol]	0.1 ± 0.0004 nM	0.00183 s⁻¹	1.85e+07 M⁻¹ s⁻¹	0.269 nM	–
CC(C)(C)NCC(O)COc1cccc2c1CC(O)C(O)C2 (centres unmarked) [Nadolol, nadolol]	22.4 nM	0.00283 ± 0.0005 s⁻¹	7.68 ± 0.79 × 10^6 M^−1 min^−1	33.9 nM	–

From article PMC9237807 (Pharmacology Research & Perspectives, 2022)
